Assay results as given in patent US10716778B2, “Use of compounds that are able to increase the serum IGF-1 level for the preparation of a therapeutical composition for treatment of various disease states associated with a reduced IGF-1 serum level in humans and animals” (VEIJLEN N.V., priority 2003, dated 2020).
“And” between values parts separate entries of the source, which are not always exact repeats. Equal entries are not always repeated.

Experiments:
IgF-BP3/IgF-1 = test: Ratio IgF-BP3/IgF-1 in type 2 diabetic patients during medication with IAA (Example 4); assay type: in vivo, human; conditions: for Ratio IgF-BP3/IgF-1: acetic acid
Text: Five male type 2 diabetic patients took part in the study. They were all very difficult to regulate. When the study started, the average HbA1c was to be approximately 9.0%. The patients had no other clinical problems. In addition, the IgF-BP3/IgF-1 ratio had to be over 10. The age of the subjects were between 45 years and 75 years with an average of 58. The period of the investigation was 6 months. […] The following parameters were checked: IGF-1 and IGF-PB-3. Also, at the start, safety parameters (liver tests, hematology) were determined. Every 8 weeks, HbA1c was determined.
All samples from one subject were analyzed in the same run to avoid intra-assay variability. Quantification of IGF-1 was performed using an immunoradiometric assay (IRMA) (DSL-5600 ACTIVE™, DSL, Germany GmbH, Germany). Intra- and inter-assay variance was: 4.0% and 9.2% and 1.5% for IGF-1. The Hba1c was analyzed on HPLC Menarine HA 81-60.
The total work output of every subject was calculated with a 2-way ANOVA for repeated measures and the hormone values were analyzed with the Wilcoxon test. In all cases, a p value of <0.05 was accepted as significant.

IGF-1 = IGF-1 levels in poor-growing piglets treated with IAA (Example 7); assay type: in vivo, piglets (Dutch Landrace)
Text: (§1) The trial was done in a well-managed farm with 1000 sows of the Dutch Landrace. Although the farm is well run, the technical performance is not optimal. There were latent problems with mortality and with growth rates of the piglets. There are too many poor-growing piglets, without fully understanding the technical or veterinary reason. There is no clear pathology to be seen on the farm.
(§2) The farmer selected the poor-growing piglets for this weaning period. The piglets were weaned for two days at the start of the trial. There were three groups: the normal well-growing piglets, which served as a control group; the B group with 78 poor growers that are treated with 12.5 mg/kg/LW (Life Weight) IAA; and the X group with 52 poor growers that are not treated.
(§3) Blood samples for IGF-1 measuring were taken from each group at the beginning of the trial and at the end of the trial. Two pens (13 piglets) of the B and X groups were weighed at the beginning and at the end of the trial. The active ingredient IAA was mixed in dextrose. […] The B group received the treatment five days after the first IGF-1 measuring.

poor-growing piglets = test: Weight gain and appearance of poor-growing piglets treated with IAA (Example 7); assay type: in vivo, piglets (Dutch Landrace)
Text: as §1, §2, §3

growing laying hens = test: Weight and weight gain of growing laying hens treated with IAA (Example 8); assay type: in vivo; set-up: unit not given here
Procedure: Growing laying hens of 10 weeks old were selected in the flock to create four groups of ten hens: • Group GB: Ten normally growing hens, not treated • Group GNA: Ten normally growing hens, treated with 10 mg/kg/LW IAA (LW=live weight) • Group SB: Ten poorly growing hens, not treated • Group SNA: 10 poorly growing hens, treated with 10 mg/kg/LW IAA.
In this example, not only the poor-growing birds were treated, but also normally growing animals. The birds receive daily forced oral treatment with a capsule that contains IAA. The different groups are weighed every week. Treatment is continued at least until the hens start laying, to see if the period of onset of laying is influenced by the treatment.

[1] = system: piglets that had a history of PRRSV; test: Health condition of problem piglets (group P) with history of PRRSV treated with IAA (Example 9); assay type: in vivo, Belgian Land Race piglets; conditions: after ten days of treatment
Procedure: The piglets were weaned at four weeks and relocated, twelve piglets per pen. IGF-1 levels from three different groups were tested at the age of five weeks.
These are the pigs with the big problems. They are looking poor, have a low weight, bad color and some of them have Staphylococcus infections. It was the firm belief of the farmer and the veterinarian that these piglets would not reach the end of the fattening cycle. Blood samples were taken at random from five of the twelve piglets.
After seeing the low IGF-1 levels in group P, it was decided to give them the same treatment as in humans with CFS. The average weight of the piglets would have been around seven kilos at five weeks of age. They were treated with 125 mg of the composition comprising 5 mg IAA and 120 mg NaCl and WPC 70 for ten days. The product was fed in a trough, mixed in liquid feed. All the piglets ate from the same trough.

## indole acetic acid [IAA]
IgF-BP3/IgF-1; Month 0 (start), average of 5 subjects
  Ratio IgF-BP3/IgF-1, average: 10.6
IgF-BP3/IgF-1; Month 0 (start), individual subjects
  Ratio IgF-BP3/IgF-1: 10.2 and 10.6 and 10.8 and 11.3 and 10.0
IgF-BP3/IgF-1; Month 1, average of 5 subjects
  Ratio IgF-BP3/IgF-1, average: 9.9
IgF-BP3/IgF-1; Month 1, individual subjects
  Ratio IgF-BP3/IgF-1: 9.7 and 10.1 and 9.9 and 10.8 and 8.9
IgF-BP3/IgF-1; Month 2, average of 5 subjects
  Ratio IgF-BP3/IgF-1, average: 8.9
IgF-BP3/IgF-1; Month 2, individual subjects
  Ratio IgF-BP3/IgF-1: 9.0 and 8.6 and 9.4 and 9.2 and 8.5
IgF-BP3/IgF-1; Month 3, average of 5 subjects
  Ratio IgF-BP3/IgF-1, average: 8.5
IgF-BP3/IgF-1; Month 3, individual subjects
  Ratio IgF-BP3/IgF-1: 8.6 and 8.3 and 8.9 and 8.8 and 8.1
IgF-BP3/IgF-1; Month 4, average of 5 subjects
  Ratio IgF-BP3/IgF-1, average: 7.9
IgF-BP3/IgF-1; Month 4, individual subjects
  Ratio IgF-BP3/IgF-1: 8.0 and 7.6 (2×) and 8.3 and 7.8
IgF-BP3/IgF-1; Month 5, average of 5 subjects
  Ratio IgF-BP3/IgF-1, average: 7.2
IgF-BP3/IgF-1; Month 5, individual subjects
  Ratio IgF-BP3/IgF-1: 7.2 (2×) and 6.8 and 7.6 and 7.3
IgF-BP3/IgF-1; Month 6, average of 5 subjects
  Ratio IgF-BP3/IgF-1, average: 6.8
IgF-BP3/IgF-1; Month 6, individual subjects
  Ratio IgF-BP3/IgF-1: 6.6 and 6.3 and 7.2 and 6.9 (2×)
IGF-1; treated group B, individual piglets, after 21 days of 12.5 mg/kg/LW IAA in feed, acetic acid, 12.5 mg/kg
  IGF-1 level, 2nd measurement: 25.2 nmol/L and 28.9 nmol/L and 25.5 nmol/L and 29.9 nmol/L and 16.9 nmol/L
IGF-1; treated group B, individual piglets, beginning of the trial, before treatment, acetic acid
  IGF-1 level, 1st measurement: 3 nmol/L and 2.7 nmol/L and 6.1 nmol/L and 5.3 nmol/L and 5.7 nmol/L
IGF-1; treated group B, average of 5 piglets, after 21 days of treatment, control 23.6, non-treated X 17.2, acetic acid
  IGF-1 level, 2nd measurement, average: 25.3 nmol/L and 25.28 nmol/L
IGF-1; treated group B, average of 5 piglets, before treatment
  IGF-1 level, 1st measurement, average: 4.56 nmol/L
IGF-1; treatment for 14-21 days with 12.5 mg/kg/LW IAA
  effect on IGF-1 levels in poor-growing piglets: effectively restores IGF-1 levels
poor-growing piglets; after one week
  appearance of piglets in group B versus group X: looking better
poor-growing piglets; animal experiments, summary
  weight of poor-growing animals: increased to normal levels
poor-growing piglets; pens that were weighed, period of 21 days
  average extra weight gain of treated group over non-treated: ~0.5 kg
poor-growing piglets; treated pens of group B, 21 days, acetic acid
  av. Weight gain: 7.02 kg and 6.08 kg
poor-growing piglets; treated pens of group B, beginning of the trial, average per piglet, acetic acid
  Weighing 1 average: 6.62 kg and 6.77 kg
poor-growing piglets; treated pens of group B, beginning of the trial, total per pen, acetic acid
  Weighing 1 Total: 86 (n = 13) kg and 88 (n = 13) kg
poor-growing piglets; treated pens of group B, end of the trial, average per piglet, acetic acid
  Weighing 2 average: 13.64 kg and 12.85 kg
poor-growing piglets; treated pens of group B, end of the trial, total per pen, acetic acid
  Weighing 2 Total: 150 (n = 11) kg and 167 (n = 13) kg
poor-growing piglets; treated vs non-treated pen
  average extra growth of pen B 3 L(eft) over neighbors from pen X 4 L(eft): 850 grams
Growing laying hens; group GNA (normally growing hens, 10 mg/kg/LW IAA daily oral capsule), weekly weighing 1
  weight: 740
Growing laying hens; group GNA, untreated GB 407.5
  total weight gain: 482
Growing laying hens; group GNA, weekly weighing 2
  weight: 883
Growing laying hens; group GNA, weekly weighing 3
  weight: 996
Growing laying hens; group GNA, weekly weighing 4
  weight: 1095
Growing laying hens; group GNA, weekly weighing 5
  weight: 1222
Growing laying hens; group GNA, weighing 2 vs 1
  weight gain: 143
Growing laying hens; group GNA, weighing 3 vs 2
  weight gain: 113
Growing laying hens; group GNA, weighing 4 vs 3
  weight gain: 99
Growing laying hens; group GNA, weighing 5 vs 4
  weight gain: 127
Growing laying hens; group SNA (poorly growing hens, 10 mg/kg/LW IAA daily oral capsule), weekly weighing 1
  weight: 489.5
Growing laying hens; group SNA, untreated SB 408.5
  total weight gain: 505.5
Growing laying hens; group SNA, weekly weighing 2
  weight: 598
Growing laying hens; group SNA, weekly weighing 3
  weight: 718
Growing laying hens; group SNA, weekly weighing 4
  weight: 885
Growing laying hens; group SNA, weekly weighing 5
  weight: 995
Growing laying hens; group SNA, weighing 2 vs 1
  weight gain: 108.5
Growing laying hens; group SNA, weighing 3 vs 2
  weight gain: 120
Growing laying hens; group SNA, weighing 4 vs 3
  weight gain: 167
Growing laying hens; group SNA, weighing 5 vs 4
  weight gain: 110
[1]
  Staphylococcus infection: no piglets suffered from Staphylococcus infection anymore
  condition of the piglets: dramatically improved
  survival: All twelve pigs were still alive
